In patent US8642259B2, “Method for identifying substances capable of modulating the activity of a target molecule” (Sanofi-Aventis Deutschland GmbH, priority 2002, dated 2014):

Key:
human GPCR EDG1 = human GPCR EDG1 (Homo sapiens, UniProt P21453); test: Growth readout (FUS1-HIS3, turbidity at 630 nm), yeast strain YLJ21 expressing EDG1; assay type: cell-based; conditions: 2 mM 3-AT; 23 h at 30° C.; FIG. 3B left-hand graph
Protocol: (§1) The human GPCRs cloned into vector p426GPD are transformed into the appropriate yeast strain and incubated on SC selection plates without uracil and with 2% glucose as carbon source (SC/Gluc-Ura) at 30° C. for 3 days. The single cell colonies thus obtained are then utilized in order to inoculate 2 ml overnight cultures in SC/Gluc-Ura. The next day, the cells are diluted 1:100 in SC/Gluc-Ura-His pH 6.8. In the case of yeast strains using the FUS1 promoter for reporter gene expression, 2-10 mM 3-aminotriazole (3-AT, Sigma) are additionally added to said medium. In each case 90 μl of the diluted cell suspension are pipetted into a well of a 96-well microtiter plate, which already contains 10 μl of the ligand to be studied. The plates are incubated with or without shaking at 30° C. for 5-24 h. […] All measurements are averages from triplicate determinations. […] The transformed yeasts were then cultivated in 2 ml of SC/Gluc-Ura at 30° C. overnight. The next day, the cultures were diluted 1:100 in SC/Gluc-Ura-His pH 6.8 medium without (FIG. 3A) or with 2 mM 3-AT (FIG. 3B). […] The turbidity resulting from growth of the yeast cells was measured at 630 nm in the photometer (FIGS. 3A and B, in each case left-hand graph).

human GPCR EDG5 = target: T1, human GPCR EDG5 (Homo sapiens, UniProt O95136); test: Growth readout (FUS1-HIS3, turbidity at 630 nm), yeast strain YLJ21 expressing EDG5; assay type: cell-based; conditions: 2 mM 3-AT; 23 h at 30° C.; FIG. 3B left-hand graph
T1 construct: expressed in transfected cells; host or cells: Saccharomyces cerevisiae strain YLJ21 (endogenous Gpa1), episomal vector p426GPD
T1 sequence (O95136 whole entry): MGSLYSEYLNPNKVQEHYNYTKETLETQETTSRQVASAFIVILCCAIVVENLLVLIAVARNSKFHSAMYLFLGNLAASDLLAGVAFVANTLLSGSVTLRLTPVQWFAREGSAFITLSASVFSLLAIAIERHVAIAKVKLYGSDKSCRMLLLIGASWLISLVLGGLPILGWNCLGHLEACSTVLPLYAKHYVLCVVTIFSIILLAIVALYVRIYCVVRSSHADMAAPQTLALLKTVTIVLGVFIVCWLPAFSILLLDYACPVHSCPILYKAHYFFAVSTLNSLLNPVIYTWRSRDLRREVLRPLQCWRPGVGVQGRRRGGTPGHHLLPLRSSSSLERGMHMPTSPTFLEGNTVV
Protocol: as §1

[1] = tested on: human M1 muscarinic receptor, somatostatin receptor 2 and EDG5
Protocol: The human GPCRs cloned into vector p426GPD are transformed into the appropriate yeast strain and incubated on SC selection plates without uracil and with 2% glucose as carbon source (SC/Gluc-Ura) at 30° C. for 3 days. The single cell colonies thus obtained are then utilized in order to inoculate 2 ml overnight cultures in SC/Gluc-Ura. The next day, the cells are diluted 1:100 in SC/Gluc-Ura-His pH 6.8. In the case of yeast strains using the FUS1 promoter for reporter gene expression, 2-10 mM 3-aminotriazole (3-AT, Sigma) are additionally added to said medium. In each case 90 μl of the diluted cell suspension are pipetted into a well of a 96-well microtiter plate, which already contains 10 μl of the ligand to be studied. The plates are incubated with or without shaking at 30° C. for 5-24 h. This is followed by adding to each well 50 μl of assay mix. The assay mix consists of 150 μg/ml digitonin (Sigma), 300 μg/ml chlorophenol red β-D-galactopyranoside (CPRG, Roche), 300 mM sodium phosphate buffer pH 6.7. After incubation with or without shaking at 30° C. for 2 h, β-galactosidase activity is measured as absorption at 574 nm in a spectrophotometer (Spectramax Plus, Molecular Devices). The data are analyzed and dose-response curves are drawn using the Graphpad Prism 3.0 computer program. All measurements are averages from triplicate determinations. […]

Sequence of human GPCR EDG1 (P21453 whole entry): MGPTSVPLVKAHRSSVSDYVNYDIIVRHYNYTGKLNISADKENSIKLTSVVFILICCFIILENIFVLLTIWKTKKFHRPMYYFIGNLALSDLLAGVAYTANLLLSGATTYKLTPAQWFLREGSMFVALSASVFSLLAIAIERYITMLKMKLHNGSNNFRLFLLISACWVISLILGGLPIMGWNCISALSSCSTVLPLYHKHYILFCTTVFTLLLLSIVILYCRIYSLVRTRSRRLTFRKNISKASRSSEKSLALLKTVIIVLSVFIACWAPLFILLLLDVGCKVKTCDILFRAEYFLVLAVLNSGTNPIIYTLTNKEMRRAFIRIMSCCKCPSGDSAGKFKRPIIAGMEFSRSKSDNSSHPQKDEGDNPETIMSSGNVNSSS

Row | Compound | dose dependence of the measured signal (turbidity at 630 nm) (human GPCR EDG1) | dose dependence of the measured signal (turbidity at 630 nm) (human GPCR EDG5) | detection of the agonist in the receptor mixture [1]
1 | CCCCCCCCCCCCC/C=C/[C@@H](O)[C@@H](N)COP(=O)(O)O [sphingosine 1-phosphate] | level of the measured signal is dependent on the amount of sphingosine 1-phosphate | level of the measured signal is dependent on the amount of sphingosine 1-phosphate | can also be detected in the mixture
2 | somatostatin-14 |  |  | can also be detected in the mixture
